Values after ≈ are worked out from the molar mass of the structure shown. Like-named read-outs stand apart in the source and are kept apart here.
Experiments:
[1] = system: Staphylococcus aureus 209 P; test: Antibacterial spectra in vitro, MIC on agar plates; assay type: cell-based; details: IFM No. 2014, nutrient agar, 37° C., 24 hours
[2] = system: Staphylococcus aureus Smith; test: Antibacterial spectra in vitro, MIC on agar plates; assay type: cell-based; details: IFM No. 2018, nutrient agar, 37° C., 24 hours
[3] = system: Staphylococcus albus; test: Antibacterial spectra in vitro, MIC on agar plates; assay type: cell-based; details: IFM No. 2013, nutrient agar, 37° C., 24 hours
[4] = system: Staphylococcus citreus; test: Antibacterial spectra in vitro, MIC on agar plates; assay type: cell-based; details: IFM No. 2025, nutrient agar, 37° C., 24 hours
[5] = system: Sarcina lutea; test: Antibacterial spectra in vitro, MIC on agar plates; assay type: cell-based; details: Micrococcus luteus; IFM No. 2066; nutrient agar; 37° C., 24 hours
[6] = system: Bacillus subtilis PCI 219; test: Antibacterial spectra in vitro, MIC on agar plates; assay type: cell-based; details: PCI219, IFM No. 2060, nutrient agar, 37° C., 24 hours
[7] = system: Bacillus cereus; test: Antibacterial spectra in vitro, MIC on agar plates; assay type: cell-based; details: IFM No. 2058, nutrient agar, 37° C., 24 hours
[8] = system: Escherichia coli F1; test: Antibacterial spectra in vitro, MIC on agar plates; assay type: cell-based; details: IFM No. 3002, nutrient agar, 37° C., 24 hours
[9] = system: Salmonella typhimurium; test: Antibacterial spectra in vitro, MIC on agar plates; assay type: cell-based; details: Salmonella enterica, IFM No. 3023, nutrient agar, 37° C., 24 hours
[10] = system: Shigella dysenteria; test: Antibacterial spectra in vitro, MIC on agar plates; assay type: cell-based; details: IFM No. 3024, nutrient agar, 37° C., 24 hours
[11] = system: Klebsiella pneumoniae; test: Antibacterial spectra in vitro, MIC on agar plates; assay type: cell-based; details: IFM No. 3008, nutrient agar, 37° C., 24 hours
[12] = system: Serratia marcescens; test: Antibacterial spectra in vitro, MIC on agar plates; assay type: cell-based; details: IFM No. 3029, nutrient agar, 37° C., 24 hours
[13] = system: Corynebacterium diphtheria; test: Antibacterial spectra in vitro, MIC on agar plates; assay type: cell-based; details: IFM No. 2056, glucose (0.5%) agar, 37° C., 24 hours
Procedure: (§1) With respect to the antimicrobial activities of saframycins Y3 and Yd-1, the antibacterial spectra in vitro, as expressed by their minimum inhibitory concentrations (MIC), are shown in Table 2:
(§2) Medium: A=nutrient agar, B=glucose (0.5%) agar, C=Sabouraud's glucose (2%) agar.
(§3) All MIC-values shown in Table 2 are obtained from cultures on agar plates containing varying amounts of the antibiotic tested at temperatures of 37° C. after an incubation period of 24 hours (bacteria), 48 hours (fungi except candida albicans, 37° C., 48 hours, Trichophyton mentagrophytes.

[14] = system: Mycobacterium sp. 607; test: Antibacterial spectra in vitro, MIC on agar plates; assay type: cell-based; details: IFM No. 2051, glucose (0.5%) agar, 37° C., 24 hours
Procedure: as §1, §2, §3

[15] = system: Pseudomonas aeruginosa; test: Antibacterial spectra in vitro, MIC on agar plates; assay type: cell-based; details: IFM No. 3011, nutrient agar, 37° C., 24 hours
Procedure: as §1, §2, §3

[16] = system: Streptococcus pyogenes Cook; test: Antibacterial spectra in vitro, MIC on agar plates; assay type: cell-based; details: IFM No. 2003, glucose (0.5%) agar, 37° C., 24 hours
Procedure: as §1, §2, §3

[17] = system: Streptococcus faecalis; test: Antibacterial spectra in vitro, MIC on agar plates; assay type: cell-based; details: Enterococcus faecalis; IFM No. 2001; glucose (0.5%) agar; 37° C., 24 hours
[18] = system: Streptococcus pyogenes 090 R; test: Antibacterial spectra in vitro, MIC on agar plates; assay type: cell-based
[19] = system: Streptococcus salivarius; test: Antibacterial spectra in vitro, MIC on agar plates; assay type: cell-based; details: IFM No. 2010, glucose (0.5%) agar, 37° C., 24 hours
[20] = system: Corynebacterium xeriosis; test: Antibacterial spectra in vitro, MIC on agar plates; assay type: cell-based; details: IFM No. 2057, glucose (0.5%) agar, 37° C., 24 hours
[21] = system: Mycobacterium phlei; test: Antibacterial spectra in vitro, MIC on agar plates; assay type: cell-based; details: Mycolicibacterium phlei; IFM No. 2052; glucose (0.5%) agar; 37° C., 24 hours
[22] = system: Mycobacterium avium; test: Antibacterial spectra in vitro, MIC on agar plates; assay type: cell-based; details: IFM No. 2054, glucose (0.5%) agar, 37° C., 24 hours
[23] = system: Nocardia asteroides; test: Antibacterial spectra in vitro, MIC on agar plates; assay type: cell-based; details: IFM No. 0006, glucose (0.5%) agar, 37° C., 24 hours
[24] = system: Brucella abortus; test: microbe, parasite or virus in culture; assay type: cell-based; details: 24 h
[25] = system: Candida albicans 7N; test: Antimicrobial (fungi) MIC on agar plates; assay type: cell-based; details: IFM No. 40009, Sabouraud's glucose (2%) agar
[26] = system: Saccharomyces cerevisiae; test: Antimicrobial (fungi) MIC on agar plates; assay type: cell-based; details: IFM No. 40025, Sabouraud's glucose (2%) agar, 48 hours
[27] = system: Rhodotorula glutinus; test: Antimicrobial (fungi) MIC on agar plates; assay type: cell-based; details: IFM No. 40057, Sabouraud's glucose (2%) agar, 48 hours
[28] = system: Aspergillus niger; test: Antimicrobial (fungi) MIC on agar plates; assay type: cell-based; details: IFM No. 40606, Sabouraud's glucose (2%) agar, 48 hours
[29] = system: Aspergillus oryzae; test: Antimicrobial (fungi) MIC on agar plates; assay type: cell-based; details: IFM No. 40601, Sabouraud's glucose (2%) agar, 48 hours
[30] = system: Penicillium expansum; test: Antimicrobial (fungi) MIC on agar plates; assay type: cell-based; details: IFM No. 40618, Sabouraud's glucose (2%) agar, 48 hours
[31] = system: Trichophyton mentagrophytes; test: Antimicrobial (fungi) MIC on agar plates; assay type: cell-based; details: IFM No. 40134, Sabouraud's glucose (2%) agar
[32] = system: mouse leukaemia L 1210; test: Cytotoxic effect in cell cultures of mouse leukaemia L 1210; assay type: cell-based; details: L1210, read-out: ED50 (cytotoxic effect)
[33] = system: Ehrlich ascitic tumor cells; test: Survival of ICR mice inoculated with Ehrlich ascitic tumor cells; assay type: in vivo; details: for mice survived: 20 micrograms/mouse/day intraperitoneally for 7 days, from 24 hours after inoculation, 10 mice per group
Procedure: In another test, ICR mice (10 mice per group) were inoculated with Ehrlich ascitic tumor cells. Twenty-four hours after the inoculation the dose of 20 micrograms/mouse/day of saframycin Y3 or 20 micrograms/mouse/day of saframycin Yd-1 was administered intraperitoneally. The administration was continued for 7 days. […] When 5 micrograms/mouse/day of saframycin Y3 or 4 micrograms/mouse/day of Yd-1 were administered, 60-70% of the mice survived for 20 days or more.

[34] = system: mouse leukemia L 1210; test: Effect against mouse leukemia L 1210 in BDF1 mice (US National Cancer Research Institute procedure); assay type: in vivo; details: for survival effect compared with critical level of effectiveness prescribed by the research institute: 10 micrograms/mouse/day intraperitoneally for one week; for survival effect [T/C×100]: 10 micrograms/mouse/day intraperitoneally for one week from 24 hours after transplantation
From the text: In another test, the effect of saframycins Y3 and Yd-1 against mouse leukemia L 1210 was examined by using BDF1 mice according to the procedure as established by the US National Cancer Research Institute.

[35] = system: Lewis lung cancer; test: Effect against metastasis of Lewis lung cancer (foot pad inoculation, leg amputation); assay type: in vivo, BDF1 mice; details: 40 micrograms/mouse/day for 10 days i.p.; seven days after last administration; control: abundant metastasis
Procedure: In another test, the effect of saframycin Yd-1 against metastasis of Lewis lung cancer was determined in the following manner:
The foot pads of the left hind legs of BDF1 mice having a body weight of 20 g were subcutaneously inoculated with 1.5×10^5 Lewis lung cancer cells. After seven days the legs were amputated.
(§4) A physiological sodium chloride solution was administered intraperitoneally to the control group while saframycin Yd-1 was given at a dose of 40 micrograms/mouse/day for 10 days i.p. to the group to be treated. Seven days after the last administration, the mice were sacrificed and the spread of metastasis in the lungs was compared. […] In anther experiment, the effect against Lewis lung cancer was evaluated according to the guidelines of the USA Cancer Institute (R. L. Geran et al. Cancer Chemotherapy Reports, Part 3, Vol. 3, No. 2 (1972)).

[36] = system: Lewis lung cancer; test: Effect against Lewis lung cancer according to guidelines of the USA Cancer Institute; assay type: in vivo; details: 20 micrograms/mouse/day intraperitoneally for 10 days
Procedure: as §4

Structure (SMILES): COC1=C(C)C(=O)C2=C(C1=O)C1C3CC4=C(C(=O)C(OC)=C(C)C4=O)C(CNC(=O)C(C)N)N3C(C#N)C(C2)N1C (stereo not drawn) [Saframycin Y3]
- MIC [1]: 1 µg/mL (≈ 1.77 µM)
- MIC [2]: 0.1 µg/mL (≈ 0.177 µM)
- MIC [3]: 1 µg/mL (≈ 1.77 µM)
- MIC [4]: 0.1 µg/mL (≈ 0.177 µM)
- MIC [5]: 1 µg/mL (≈ 1.77 µM)
- MIC [6]: 10 µg/mL (≈ 17.7 µM)
- MIC [7]: 50 µg/mL (≈ 88.7 µM)
- MIC [8]: 50 µg/mL (≈ 88.7 µM)
- MIC [9]: 50 µg/mL (≈ 88.7 µM)
- MIC [10]: 10 µg/mL (≈ 17.7 µM)
- MIC [11]: 10 µg/mL (≈ 17.7 µM)
- MIC [12]: 50 µg/mL (≈ 88.7 µM)
- MIC [13]: < 0.001 µg/mL
- MIC [14]: > 100 µg/mL
- MIC [15]: > 100 µg/mL
- MIC [16]: < 0.001 µg/mL
- MIC [17]: 10 µg/mL (≈ 17.7 µM)
- MIC ([18]; IFM No. 2006, glucose (0.5%) agar, 37° C., 24 hours, read-out: MIC): 0.1 µg/mL (≈ 0.177 µM)
- MIC [19]: 50 µg/mL (≈ 88.7 µM)
- MIC [20]: 1 µg/mL (≈ 1.77 µM)
- MIC [21]: 50 µg/mL (≈ 88.7 µM)
- MIC [22]: 50 µg/mL (≈ 88.7 µM)
- MIC [23]: 50 µg/mL (≈ 88.7 µM)
- MIC [24]: 1 µg/mL (≈ 1.77 µM)
- MIC [25]: > 100 µg/mL
- MIC [26]: > 100 µg/mL
- MIC [27]: > 100 µg/mL
- MIC [28]: > 100 µg/mL
- MIC [29]: > 100 µg/mL
- MIC [30]: > 100 µg/mL
- MIC [31]: > 100 µg/mL
- IC50 [32]: 0.0016 µg/mL (≈ 0.00284 µM)
- mice survived for 20 days or more ([33]; 5 micrograms/mouse/day): 60-70%
- mice survived [33]: all mice survived
- survival effect compared with critical level of effectiveness prescribed by the research institute [34]: exceed the critical level of effectiveness
- survival effect [T/C×100] [34]: 130%

Structure (SMILES): CCC(N)C(=O)NCC1C2=C(CC3C4C5=C(CC(C(C#N)N13)N4C)C(=O)C(C)=C(OC)C5=O)C(=O)C(C)=C(OC)C2=O (stereo not drawn) [Saframycin Yd-1]
- MIC [1]: 1 µg/mL (≈ 1.73 µM)
- MIC [2]: 1 µg/mL (≈ 1.73 µM)
- MIC [3]: 10 µg/mL (≈ 17.3 µM)
- MIC [4]: 0.1 µg/mL (≈ 0.173 µM)
- MIC [5]: 1 µg/mL (≈ 1.73 µM)
- MIC [6]: 1 µg/mL (≈ 1.73 µM)
- MIC [7]: 50 µg/mL (≈ 86.6 µM)
- MIC [8]: 50 µg/mL (≈ 86.6 µM)
- MIC [9]: 50 µg/mL (≈ 86.6 µM)
- MIC [10]: 10 µg/mL (≈ 17.3 µM)
- MIC [11]: 10 µg/mL (≈ 17.3 µM)
- MIC [12]: 50 µg/mL (≈ 86.6 µM)
- MIC [13]: < 0.001 µg/mL
- MIC [14]: > 100 µg/mL
- MIC [15]: > 100 µg/mL
- MIC [16]: < 0.001 µg/mL
- MIC [17]: 10 µg/mL (≈ 17.3 µM)
- MIC ([18]; 24 h): 0.01 µg/mL (≈ 0.0173 µM)
- MIC [19]: 50 µg/mL (≈ 86.6 µM)
- MIC [20]: 1 µg/mL (≈ 1.73 µM)
- MIC [21]: 50 µg/mL (≈ 86.6 µM)
- MIC [22]: 50 µg/mL (≈ 86.6 µM)
- MIC [23]: 1 µg/mL (≈ 1.73 µM)
- MIC [24]: 1 µg/mL (≈ 1.73 µM)
- MIC [25]: > 100 µg/mL
- MIC [26]: > 100 µg/mL
- MIC [27]: > 100 µg/mL
- MIC [28]: > 100 µg/mL
- MIC [29]: > 100 µg/mL
- MIC [30]: > 100 µg/mL
- MIC [31]: > 100 µg/mL
- IC50 [32]: 0.002 µg/mL (≈ 0.00346 µM)
- mice survived for 20 days or more ([33]; 4 micrograms/mouse/day): 60-70%
- mice survived [33]: all mice survived
- survival effect compared with critical level of effectiveness prescribed by the research institute [34]: exceed the critical level of effectiveness
- survival effect [T/C×100] [34]: 140%
- spread of metastasis in the lungs [35]: metastasis was scarcely observed
- T/C×100 [36]: ≥ 140%
- preventing effect against cancer metastasis as compared to saframycin A [36]: higher preventing effect

— patent publication US4837149A, “Novel saframycin A derivatives and process for producing the same” (priority 1984, dated 1989)
